Experimental data reported in the supplement of paper PMC11208160.

Assay: recombinant UMI read abundance after kanamycin selection (control-corrected) (log10(CPM+1)); higher = more efficient recombination; extreme values may be limits of the assay; sequences stand for … in AGTGCAGAGAAAATCGGCCAGTTTTCTCTGCCTGCAGTCCGCATGCCGTGGGACCCCTTGGGTTCTAACCTGTTGCCTAGATTTATGCAGCGGACTGCCTTTCTCCCAAAGTGATAAACCGG…AGGTTGGTTTCACT; site = the 11-nt donor
Outline: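 Sequenced counts of recombinant UMIs were turned into CPM, averaged across replicates and scaled with control-derived factors. The reported figure is log10(CPM+1). Those UMIs, each 12 nt long, tagged donor and donor-binding-loop pairs on a plasmid with a promoterless kanamycin gene, screened as a pool in Escherichia coli with IPTG (0.07 mM) plus kanamycin or without selection.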
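Further: IS621 bridge recombinase in Escherichia coli cells against a fixed T5 target plasmid.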

Sequence	recombinant UMI read abundance (log10)
CGATCATCATGGACCGGTTTTCCCGGTAATCCGTATTTGCC (site CGATCATCTGG)	0
CGATCATCATGGACCGGTTTTCCCGGTAATCCGTATTTGCC (site CGATCATCTTG)	0
CGATCATCATGGACCGGTTTTCCCGGTAATCCGTATTTGCG (site CGATCATCTAG)	0
CGATCATCATGGACCGGTTTTCCCGGTAATCCGTATTTGCG (site CGATCATCTCG)	2.32
CGATCATCATGGACCGGTTTTCCCGGTAATCCGTATTTGCG (site CGATCATCTGG)	0
CGATCATCATGGACCGGTTTTCCCGGTAATCCGTATTTGCG (site CGATCATCTTG)	0.00387
CGATCCCCATGGACCGGTTTTCCCGGTAATCCGTATTTGGG (site CGATCCCCTCC)	0.00829
CGATCCTCATGGACCGGTTTTCCCGGTAATCCGTATTTGGT (site CGATCATCTAG)	0
CGATCCTCATGGACCGGTTTTCCCGGTAATCCGTATTTGGT (site CGATCCTCTAC)	1.74
CGATCGACATGGACCGGTTTTCCCGGTAATCCGTATTTGGT (site CGATCGACTAA)	0.276
CGATCGACATGGACCGGTTTTCCCGGTAATCCGTATTTGGT (site CGATCGACTAC)	0.733
CGATCGACATGGACCGGTTTTCCCGGTAATCCGTATTTGGT (site CGATCGACTAG)	0
CGATCGACATGGACCGGTTTTCCCGGTAATCCGTATTTGGT (site CGATCGACTAT)	1.46
CGATCGACATGGACCGGTTTTCCCGGTAATCCGTATTTGTA (site CGATCGACTAA)	0
CGATCGACATGGACCGGTTTTCCCGGTAATCCGTATTTGTA (site CGATCGACTCA)	0.0107
CGATCGACATGGACCGGTTTTCCCGGTAATCCGTATTTGTA (site CGATCGACTGA)	0

Sequence	recombinant UMI read abundance (log10)
CGATCGACATGGACCGGTTTTCCCGGTAATCCGTATTTGTA (site CGATCGACTTA)	1.19
CGATCGTCATGGACCGGTTTTCCCGGTAATCCGTATTTGAT (site CGATCATCTAG)	0.00648
CGATCGTCATGGACCGGTTTTCCCGGTAATCCGTATTTGAT (site CGATCGTCTAT)	0.972
CGATGATCATGGACCGGTTTTCCCGGTAATCCGTATTTGAG (site CGATGATCTCT)	3.16
CGATGATCATGGACCGGTTTTCCCGGTAATCCGTATTTGCC (site CGATCATCTAG)	0
CGATGATCATGGACCGGTTTTCCCGGTAATCCGTATTTGCC (site CGATGATCTGG)	2
CGATGCGCATGGACCGGTTTTCCCGGTAATCCGTATTTGAT (site CGATGCGCTAT)	2.43
CGATGCTCATGGACCGGTTTTCCCGGTAATCCGTATTTGAA (site CAATGCTCTTT)	0.249
CGATGCTCATGGACCGGTTTTCCCGGTAATCCGTATTTGAA (site CCATGCTCTTT)	0.00345
CGATGCTCATGGACCGGTTTTCCCGGTAATCCGTATTTGAA (site CGATGCTCTTT)	2.6
CGATGCTCATGGACCGGTTTTCCCGGTAATCCGTATTTGAA (site CTATGCTCTTT)	0.0185
CGATGTCCATGGACCGGTTTTCCCGGTAATCCGTATTTGGA (site CGATGTCCTTC)	0.0178
CGATTCGCATGGACCGGTTTTCCCGGTAATCCGTATTTGCT (site CGATTCGCTAG)	2.12
CGATTGACATGGACCGGTTTTCCCGGTAATCCGTATTTGTT (site CGATAGACTAA)	0.0285
CGATTGACATGGACCGGTTTTCCCGGTAATCCGTATTTGTT (site CGATCGACTAA)	0.016
CGATTGACATGGACCGGTTTTCCCGGTAATCCGTATTTGTT (site CGATGGACTAA)	0.00746
